Assays:
Assay type in all cases: physicochemical
[1] = Experimental Example 1: residual ratio of bulk powders after storage; settings: bulk powder left at 40° C. and 75% RH in atmospheric air for 1 month
Method: After the bulk powder of the compound A and sodium ascorbate were left at 40° C. and 75% RH in atmospheric air for 1 month, their residual ratios were measured. As a result, the residual ratio of the compound A was 89.7% (W/W) and the residual ratio of sodium ascorbate was 99.0% (W/W).
The quantitative determination of the compound A was carried out by a HPLC method under the following conditions: • solvent: acetonitrile, • measurement wavelength: 287 nm, • column: CHIRALCEL OJ-R 4.6×150 mm (manufactured by Daicel Chemical Industries, Ltd. CPI Co.), • mobile phase: a mixed (16:9) solution of acetonitrile/10 mM ammonium acetate aqueous solution, • oven temperature: around 25° C.
The quantitative determination of sodium ascorbate was carried out by iodine titration method (solvent: metaphosphoric acid solution (1→50), indicator: starch reagent solution).

[2] = Experimental Example 2: stability of tablet vs bulk powder, 60° C. 2 weeks, HPLC
Method: The tablet obtained in Example 1 was put in a capped glass bottle and sealed. After storage at 60° C. for 2 weeks, the contents of the compound A and the related substances in the tablet were measured. Similarly, the bulk powder used for production of the tablet in Example 1 was stored under the same conditions and then the contents of the compound A and the related substances were measured. A comparison of stabilities between the formulated tablet and the bulk powder was made.
(§1) Measurement of the contents of the compound A and the related substances was carried out by a HPLC method under the following conditions: • solvent: water/acetonitrile mixed solution (4:6), • measurement wavelength: 287 nm, • column: XTerra MS C18 3.5 μm 4.6 mm×150 mm (manufactured by Waters Co., Ltd.), • mobile phase: a gradient of 10 mM ammonium acetate solution/acetonitrile mixed solution (4:3) and acetonitril/10 mM ammonium acetate solution mixed solution (9:1), and • oven temperature: around 40° C.

[3] = Experimental Example 3: stability of tablets with/without sodium ascorbate, 40° C. 1 month, HPLC
Method: as §1
The equilibrium moisture content (ERH) of each tablet was measured by the following method. The results were 3.0% and 3.4%, respectively.
These tablets were put in a capped glass bottle and sealed. After storage at 40° C. for 1 month, the contents of the compound A and the related substances were measured. The content of the compound A was measured in the same manner as the measurement method in Experimental Example 2, except that a water/acetonitrile mixed solution (4:6) was used as a solvent. The measurement of the related substances was carried out in the same manner as […].

[4] = initial: immediately after production
[5] = sealed capped glass bottle, after 2-week storage at 60° C.
[6] = content in the bulk used for Examples 5 and 7

SMILES | residual ratio [1] | Related substance C [2, 4] | Related substance D [2, 4] | Related substance E [2, 4] | Related substance F [2, 4] | related substance A [2, 4] | residual ratio [2, 4] | Related substance C [2, 5] | Related substance D [2, 5] | Related substance E [2, 5] | Related substance F [2, 5] | related substance A [2, 5] | related substance B [2, 5] | residual ratio [2, 5] | Related substance C [3, 6] | Related substance D [3, 6] | Related substance E [3, 6] | related substance A [3, 6] | related substance B [3, 6] | related substance A ([3]; content in the bulk used, last item of the list A to F (second mention of A))
COc1cc2c(cc1OC)CN(c1c(C)c(C)c3c(c1C)[C@@H](c1ccc(C)cc1)C(C)(C)O3)C2 [compound A, (R)-(+)-5,6-dimethoxy-2-[2,2,4,6,7-pentamethyl-3-(4-methylphenyl)-2,3-dihydro-1-benzofuran-5-yl]isoindoline] | 89.7 % (W/W) | 0.24% | 0.32% | 0.13% | 3.01% | 0.46% | 100.0% | 1.13% | 2.12% | 0.78% | 10.41% | 1.74% | 0.59% | 87.9% | 0.40% | 0.43% | 0.08% | 0.31% | 0.08% | 2.69%
O=C1O[C@H]([C@@H](O)CO)C([O-])=C1O.[Na+] [sodium ascorbate] | 99.0 % (W/W) | – | – | – | – | – | – | – | – | – | – | – | – | – | – | – | – | – | – | –

— patent publication US20050118202A1, “Solid compositions containing compounds unstable to oxygen and method for stabilization thereof” (priority 2001, published 2005)
